“Also recorded” adds a separate entry of the source. Positions of bridges follow the written chain, without caps; N, C: chain ends. Non-standard residues stand in square brackets, D forms with d. Residues, ends and D or L forms follow the SMILES beside them. d2Nal = N[C@H](Cc1ccc2ccccc2c1)C(=O)O; Nle = CCCC[C@H](N)C(=O)O
Experiments:
[1] = tested on: urethane-anesthetized rats; test: Cardiovascular effects (MAP, heart rate, ECG) in urethane-anesthetized rats
Method: These studies were performed in urethane-anesthetized rats, since anesthesia is required for six-lead ECG monitoring. […] Initial selection of doses was guided by FDA exploratory IND studies with a recommendation for at least a 100-fold excess of the human dose.

Lewis sarcoma rat model = Lewis sarcoma rat model of cancer cachexia; format: in vivo
Method: This sarcoma is an aggressive form of cancer that produces significant cachexia. Popp et al., Cancer 49 (6): 1212-1220 (1982). In the protocol, “treatment” began 8-days after tumor implantation, with a significant decrease in food intake from baseline. Body composition was determined by NMR prior to tumor implantation, and on the final day of the experiment after tumor resection, by ECHO MRI (NMR). Tumor implantation produces cachexia on or about the sixth day. The non-naturally occurring melanocortin analog or saline was administered after day 8 and continued through day 12.

LPS model of cachexia = test: LPS-induced cachexia assay in rats; format: in vivo, rat; conditions: for peripheral (IP) anti-cachexia activity / blood-brain barrier transport: peripheral administration
Method: The LPS model uses rats were maintained on a 12 h light/dark schedule with ad libitum access to food and water. Animals were handled daily for a minimum of three consecutive days to decrease non-specific handling stress. On the day of the experiment, individually housed animals received intraperitoneal injections of LPS dissolved in 0.5% low-endotoxin BSA, 0.9% saline or 0.5% BSA in 0.9% saline alone, and were returned to their home cage. The drug or control was administered (ICV, IP, or PO, depending on the type of study) 1-hour after LPS injection.
In the experiments performed in accordance with the present technology, a series of melanocortin receptor antagonist peptides were examined in a bacterial endotoxin inducing cachexia assay. For this assay, a rat is challenged with a single peripheral injection of lipopolysaccharide (LPS). LPS is a heat-stable lipo-polysaccharide, the major component of the outer membrane (capsule) of gram negative bacteria. In non-capsulated strains, it appears as a cell surface protein. LPS produces a strong immune response, including secretion of the proinflammatory cytokines Tumor Necrosis Factor α (TNFα) and interleukin-1 (IL-1). Proinflammatory cytokines are known factors that induce cachexia.
Rats are maintained on a 12-hour light/dark cycle. Animals are handled daily for a minimum of 5 consecutive days to acclimate them to the handling required for the experiment. […] On the day of the experiment, individually housed animals receive intraperitoneal (IP) injections of LPS dissolved in 0.5% low-endotoxin BSA, 0.9% saline or 0.5% BSA in 0.9% saline alone, and returned in their home cage. Melanocortin receptor antagonist peptides were administered (IP or by gavage, depending on the type of study) one hour after the LPS injection. The extent of cachexia is measured by the reduction in food intake, measured every two hours. The cachexia typically lasts only a single day. However, rats lose up to 5% of their body weight during a 12-hour light cycle, making up this loss plus food needed for normal growth during the 12-hour dark cycle. Thus, failure to eat appropriately during a single dark cycle is determinable from the animal's weight and any changes thereof.
A series of melanocortin receptor antagonist peptides were examined in a bacterial toxin inducing cachexia assay. In this assay, a rat was challenged with a single peripheral injection of lipopolysaccharide (LPS), a bacterial toxin that rapidly induces acute cachexia. The extent of cachexia was measured as a reduction in food intake, measured every two hours. The cachexia typically lasts only a single day.

**Q.** With CCCC[C@H](NC(C)=O)C(=O)N[C@H]1CC(=O)NCCCC[C@@H](C(=O)O)NC(=O)[C@H](Cc2c[nH]c3ccccc23)NC(=O)[C@H](CCCN=C(N)N)NC(=O)[C@@H](Cc2ccccc2)NC(=O)[C@H](Cc2cnc[nH]2)NC1=O [Bremelanotide (PT-141), Ac-Nle-c[Asp-His-DPhe-Arg-Trp-Lys]-COOH] as the molecule, how does the “Duration” value ([1]; 250 nmol) read?
**A.** The value was 140 ± 53 min.

**Q.** And the “Peak Heart Rate Response (BPM)” value ([1]; 250 nmol)?
**A.** Its value is 44 ± 6 BPM.

**Q.** What about the “Peak MAP Response (Δ mm Hg)” value ([1]; 250 nmol) of the same molecule?
**A.** Its value is 32 ± 6 mm Hg.

**Q.** And the “MAP after lethal dose” value ([1]; 900 nmol/kg IV, baseline MAP 80 mmHg)?
**A.** The value was 140 mmHg.

**Q.** And the lethal dose ([1]; IV)?
**A.** The lethal dose was 900 nmol/kg.

**Q.** What about the “ECG tracing (lead 2)” value ([1]; IV 600 nmol/kg) of the same molecule?
**A.** The value was “inverted P-wave”.

**Q.** With CCCC[C@H](NC(=O)[C@H](Cc1ccc(O)cc1)NC(=O)[C@H](CO)NC(C)=O)C(=O)N[C@@H](CCC(=O)O)C(=O)N[C@@H](Cc1c[nH]cn1)C(=O)N[C@H](Cc1ccccc1)C(=O)N[C@@H](CCCNC(=N)N)C(=O)N[C@@H](Cc1c[nH]c2ccccc12)C(=O)NCC(=O)N[C@@H](CCCCN)C(=O)N1CCC[C@H]1C(=O)N[C@H](C(N)=O)C(C)C [MT-I, Ac-Ser-Tyr-Nle-Glu-His-DPhe-Arg-Trp-Gly-Lys-Pro-Val-NH2] (Ac-SY[Nle]EH[dF]RWGKPV-NH2) as the molecule, how does the “Duration” value ([1]; 250 nmol) read?
**A.** The value was 0 min.

**Q.** And the “Peak Heart Rate Response (BPM)” value ([1]; 250 nmol)?
**A.** The value was 0/0 BPM.

**Q.** And the “Peak MAP Response (Δ mm Hg)” value ([1]; 250 nmol)?
**A.** Its value is 0/0 mm Hg.

**Q.** Which results are given for CCCC[C@H](NC(C)=O)C(=O)N[C@H]1CC(=O)NCCCC[C@@H](C(=O)N[C@@H](C(=O)N2CCC[C@@H]2C(=O)N[C@@H](C(=O)O)[C@H](C)O)[C@H](C)O)NC(=O)[C@H](Cc2c[nH]c3ccccc23)NC(=O)[C@H](CCCNC(=N)N)NC(=O)[C@@H](Cc2ccc3ccccc3c2)NC(=O)[C@@H]2CCCN2C1=O [TCMCB01, Ac-Nle-c[Asp-Pro-DNal(2′)-Arg-Trp-Lys]-DThr-DPro-DThr] (Ac-[Nle]DP[d2Nal]RWK[dT][dP][dT]-OH; lactam 2-7)?
**A.** food intake (reversal of cachexia-anorexia) (Lewis sarcoma rat model; 2 nmol once per day): equivalent to AGRP; also recorded: reversed the cachexia-anorexia of the tumor burden; potency compared with AGRP and SHU9119 (Lewis sarcoma rat model; 2 nmol once per day): as potent as the natural melanocortin system inhibitor Agouti Related Protein (AGRP), and significantly more potent than SHU9119; body weight after tumor implantation (Lewis sarcoma rat model; daily body weight): significantly greater than saline controls; lean body mass (NMR after tumor excision) (Lewis sarcoma rat model; p=0.05): increased lean body mass; anti-cachectic effect relative to AGRP (Lewis sarcoma rat model; related study (not shown)): 20 % greater than AGRP; Duration ([1]; 600 nmol): 0 min; Peak Heart Rate Response (BPM) ([1]; 600 nmol): 0/0 BPM; Peak MAP Response (Δ mm Hg) ([1]; 600 nmol): 0/0 mm Hg; cardiovascular activity / side effects ([1]; rat, in vivo): little cardiovascular activity; anti-cachectic activity after ICV administration (LPS model of cachexia): only produced an anti-cachexia effect when given by IVt administration; peripheral (IP) anti-cachexia activity / blood-brain barrier transport (LPS model of cachexia): did not have peripheral activity; also recorded: no blood-brain barrier transport

**Q.** What does the source list for O=C(N[C@H](Cc1ccc(Cl)cc1)C(=O)N1CCC(Cn2cncn2)(C2CCCCC2)CC1)[C@H]1Cc2ccccc2CN1 [THIQ, N-[(3R)-1,2,3,4-tetrahydroisoquinolinium-3-ylcarbonyl]-(1R)-1-(4-chlorobenzyl)-2-[4-cyclohexyl-4-(1H-1,2,4-triazol-1-ylmethyl)piperidin-1-yl]-2-oxoethylamine]?
**A.** Duration ([1]; 300 nmol): 19 ± 4 min; Peak Heart Rate Response (BPM) ([1]; 300 nmol): 81 ± 09 BPM; Peak MAP Response (Δ mm Hg) ([1]; 300 nmol): 22 ± 11 mm Hg

**Q.** How did the “peripheral (IP) anti-cachexia activity / blood-brain barrier transport” value (LPS model of cachexia) turn out when “Ac-Nle-c[Asp-Pro-DNal(2′)-Arg-Trp-Lys]-β^3Val-β^3Pro-NH2 [TCMCB09]” was run?
**A.** Its value is “inactive peripherally”.

**Q.** Which gastrocnemius mass (Lewis sarcoma rat model; low and high dose) does the source give for “Ac-Nle-c[Asp-Pro-dNal(2′)-Arg-Trp-Lys]-dVal-dPro-NH2 (Ac-[Nle]DP[d2Nal]RWK[dV][dP]-NH2; lactam 2-7) [TCMCB07]” here?
**A.** Its gastrocnemius mass is “preservation of gastrocnemius mass”.

**Q.** “Ac-Nle-c[D-Asp-Pro-DNal(2′)-Arg-Trp-DLys]-DPro-DVal-NH2 (Ac-[Nle][dD]P[d2Nal]RW[dK][dP][dV]-NH2; lactam 2-7) [TCMCB04]” was tested. Which “anti-cachectic activity after ICV administration” value (LPS model of cachexia) did it give?
**A.** The value was “superior anti-cachectic activity compared to the parent compound”.

**Q.** What about the “peripheral (IP) anti-cachexia activity / blood-brain barrier transport” value (LPS model of cachexia) of the same molecule?
**A.** Its value is “No difference was observed between the non-naturally occurring melanocortin analog and saline; also recorded: eliminated blood brain barrier transport”.

Source: patent publication US20260098072A1, “METHODS OF STIMULATING APPETITE AND/OR INCREASING BODY WEIGHT USING NON-NATURALLY OCCURRING MELANOCORTIN RECEPTOR ANTAGONIST ANALOGS” (Endevica Bio, Inc., priority 2022, published 2026)
